For data set [1], the target named is T1, OeAAS (Olea europaea, UniProt A0A8S0T2W9).
T1 construct: gene OLEA9_A000744; codon-optimised synthetic gene in pET-28a(+)-TEV (NdeI-XhoI), His-tagged, E. coli BL21(DE3), Ni-NTA
T1 sequence (A0A8S0T2W9 1-487): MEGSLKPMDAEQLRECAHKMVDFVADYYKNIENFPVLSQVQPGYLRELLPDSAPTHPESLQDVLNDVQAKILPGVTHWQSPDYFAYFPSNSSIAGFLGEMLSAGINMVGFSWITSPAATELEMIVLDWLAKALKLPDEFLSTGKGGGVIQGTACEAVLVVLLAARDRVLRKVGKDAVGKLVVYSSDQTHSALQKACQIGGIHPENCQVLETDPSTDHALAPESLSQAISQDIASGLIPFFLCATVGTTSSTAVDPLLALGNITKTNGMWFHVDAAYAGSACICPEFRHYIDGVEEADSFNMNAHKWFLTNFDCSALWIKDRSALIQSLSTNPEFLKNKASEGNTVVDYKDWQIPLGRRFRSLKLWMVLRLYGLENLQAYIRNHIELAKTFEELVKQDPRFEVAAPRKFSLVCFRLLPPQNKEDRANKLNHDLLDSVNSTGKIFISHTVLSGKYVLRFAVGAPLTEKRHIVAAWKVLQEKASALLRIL
Briefly: loss and restoration of enzyme activity without / with PLP. In kind it is biochemical. The following applies: PLP omitted during purification or in reaction medium.

Substrate in data set [2]: N[C@@H](Cc1ccc(O)c(O)c1)C(=O)O
Briefly: HPLC-DAD quantification of aldehyde product. In kind it is biochemical, Olea europaea. The conditions noted are these: 50 mM sodium phosphate pH 6.8, 200 uM PLP, 30 °C, 20 min, L-DOPA 0.05-5 mM.

In the case of `Cc1ncc(COP(=O)(O)O)c(C=O)c1O` [PLP], in data set [1], the “loss and restoration of enzyme activity without / with PLP” value is recorded as “absence of PLP during purification or in the reaction medium resulted in a total loss”.

B1: OeAAS (Olea europaea subsp. europaea) (protein)
chain: MEGSLKPMDAEQLRECAHKMVDFVADYYKNIENFPVLSQVQPGYLRELLPDSAPTHPESLQDVLNDVQAKILPGVTHWQSPDYFAYFPSNSSIAGFLGEMLSAGINMVGFSWITSPAATELEMIVLDWLAKALKLPDEFLSTGKGGGVIQGTACEAVLVVLLAARDRVLRKVGKDAVGKLVVYSSDQTHSALQKACQIGGIHPENCQVLETDPSTDHALAPESLSQAISQDIASGLIPFFLCATVGTTSSTAVDPLLALGNITKTNGMWFHVDAAYAGSACICPEFRHYIDGVEEADSFNMNAHKWFLTNFDCSALWIKDRSALIQSLSTNPEFLKNKASEGNTVVDYKDWQIPLGRRFRSLKLWMVLRLYGLENLQAYIRNHIELAKTFEELVKQDPRFEVAAPRKFSLVCFRLLPPQNKEDRANKLNHDLLDSVNSTGKIFISHTVLSGKYVLRFAVGAPLTEKRHIVAAWKVLQEKASALLRIL
notes: codon-optimised synthetic gene in pET-28a(+)-TEV (NdeI-XhoI), His-tagged, E. coli BL21(DE3), Ni-NTA
For the molecule B1, in data set [2], the Km is 150 µM.
